Laboratory results as given in patent US20230165970A1, “COMPOSITIONS AND METHODS FOR THE TREATMENT OF BACTERIAL INFECTIONS” (priority 2017, published 2023).
*1 amine or outer side, *2 acyl side, *3 side chain or, on linkers, in order; H or OH if unused. Where a SMILES comes first, the peptide text is derived from it. Bridges are numbered along the chain shown (N, C = ends). Roman numbers before positions name the chains, in order. [ ]: non-standard residue; d: D form. The star is where a group is joined. X5 = C#CCOCCOCCOCCOCCN1C[C@@H](C(=O)[*:1])[C@H](C(=O)[*:2])C1; X2 = O=C([C@@H](N[*:1])[C@H](O)CCC(F)(F)F)[*:2]; Propargyl(OCH2CH2)4CO = C#CCOCCOCCOCCOCCC(=O)*; X3 = CCCCC[C@@H](O)[C@H](N[*:1])C(=O)[*:2]; azaDab = NCCN(N[*:1])C(=O)[*:2]; Aoc(2) = CCCCCC[C@H](N)C(=O)O; hLeu = CC(C)CC[C@H](N)C(=O)O; Nle = CCCC[C@H](N)C(=O)O; Dab = NCC[C@H](N)C(=O)O; azaGly = NNC(=O)O

Experiments:
LPS from E. coli O111:B4 = experiment: LPS binding/neutralization by Limulus Amebocyte Lysate (LAL) assay; type: biochemical; conditions: LPS 1-10,000 ng/mL, test article 0.25-10 μM; sum of AUCs relative to maximal AUC (Table 15)
Procedure, shortened: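 E. coli O111:B4 LPS (1-10,000 ng/mL) preincubated with test article (0.25-10 μM) for 5 min at 37° C., then LAL reagent added and absorbance at 405 nm read after 15 min. % neutralization relative to PBS and LPS-only controls; single value from summed dose-response AUCs versus maximal achievable AUC ×100.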

[1] = system: Ec COL^R LPS: colistin-resistant (MCR-1) strain (AR0349); experiment: Lethal mouse endotoxemia model (LD95 purified LPS IP); type: in vivo, C57BL/6J mice; conditions: (D) Endotoxemia (Ec COL^R LPS); 5 mg/kg IV, single, -1 hr; survival after three days
Protocol: (§1) Studies (B)-(D) shown in Table 22 summarizes the efficacy of compounds in lethal models of endotoxemia. In these models 6 week old C57I/6J immune competent mice (Jackson Laboratory) were challenged IP with purified lipopolysaccharide (LPS) in PBS at an LD95. For all studies, LPS was obtained from Sigma (catalog numbers in the table footnote) or were purified using a kit obtained from iNtRON Biotechnology Inc. (cat #17141). One hour prior to LPS challenge mice were dosed with test articles as indicated (Table 22). The results of these studies indicate that compounds are able to neutralize the lethal effects of LPS in a severe endotoxemia/sepsis model.
End point was survival after 3 days. Ec: E. coli 0111:B34, Sigma cat #L4130; Ab: Acinetobacter baumannii 5075; Kp: Klebsiella pneumonia 10, Sigma cat #L4268; Ng: Neisseria gonorrhoeae 19424; Ec 026:B86, Sigma cat #L2762; Pm: Proteus mirabilis, Sigma cat #SMB00704; Sm: Serratia marcescens, Sigma cat #L6016; Pa: Pseudomonas aeruginosa 10. […] Purified LPS used for all endotoxemia studies and if not denoted by a Sigma catalog number the LPS was purified in-house using an iNtRON #17141 purification kit. *Delayed death, at the time Fc only animals reached 100% mortality all Conjugate 41 mice were still alive.

E. coli 25922 = conditions: (A) Bacteremia (E. coli); 5 mg/kg IV, single, +1 hr; survival after three days; N=3
Protocol: In vivo screening of selected compounds was accomplished in an E. coli bacteremia model (N=3). Efficacy was assessed in an animal model of infection using CD-1 mice by evaluating bacteremia in immune competent mice challenged with 2× the LD95 of E. coli 25922 (dosed qd, intraperitoneally (IP) at T+1 hour, survival endpoint).
Colistin (COL) and Int-17 were dosed at 0.3 mg/kg and Int-41 was dosed at 3.0 mg/kg. Percent survival was determined 72 hours after bacterial challenge. Compounds with MICs against E. coli 25922 of less than 4 μg/ml were evaluated in the bacteremia model.
Int-115 and Int-118 were evaluated for potency in a lethal model of bacteremia. […] Test articles were dissolved in 1× PBS and injected IV at a dose volume of 10 ml/kg one hour following bacterial challenge. Animals were monitored twice daily and mortality scored over three days.
CD-1 mice were used for bacteremia, C57BL/6J mice for endotoxemia. The endpoint was survival after three days for both models.

Ec LPS: E. coli 0111:B4 = experiment: Lethal mouse endotoxemia model (LD95 purified LPS IP); type: in vivo, C57BL/6J mice; conditions: (B) Endotoxemia (Ec LPS); 1 mg/kg IV, single, -1 hr; survival after three days
Protocol: as §1
End point was survival after 3 days. Ec: E. coli 0111:[…] (Sigma cat #L4130); Ab: Acinetobacter baumannii 5075 (iNtRON cat #17141); Ng: Neisseria gonorrhoeae 19424 (iNtRON cat #17141); COL: colistin.
End point was survival after 3 days. Ec: E. coli 0111:B34, Sigma cat #L4130; Ab: Acinetobacter baumannii 5075; Kp: Klebsiella pneumonia 10, Sigma cat #L4268; Ng: Neisseria gonorrhoeae 19424; Ec 026:B86, Sigma cat #L2762; Pm: Proteus mirabilis, Sigma cat #SMB00704; Sm: Serratia marcescens, Sigma cat #L6016; Pa: Pseudomonas aeruginosa 10. […]

C#CCOCCOCCOCCOCCC(=O)N[C@@H](CCC(C)C)C(=O)N[C@@H](CCN)C(=O)N[C@H](C(=O)NN(CCN)C(=O)N[C@H]1CCNC(=O)[C@H]([C@@H](C)O)NC(=O)[C@H](CCN)NC(=O)[C@H](CCN)NC(=O)[C@H](CC(C)C)NC(=O)[C@@H](Cc2ccccc2)NC(=O)[C@H](CCN)NC1=O)[C@@H](C)O [Int-127] ({Propargyl(OCH2CH2)4CO}-[hLeu][Dab]T[azaDab][Dab][Dab][dF]L[Dab][Dab]T; lactam 5-C)
% LPS neutralization (LPS from E. coli O111:B4): 13.0%

C#CCOCCOCCOCCOCCN1C[C@@H](C(=O)N[C@@H](CCCC)C(=O)N[C@@H](CCN)C(=O)N[C@H](C(=O)NNC(=O)N[C@H]2CCNC(=O)[C@H]([C@@H](C)O)NC(=O)[C@H](CCN)NC(=O)[C@H](CCN)NC(=O)[C@H](CC(C)C)NC(=O)[C@@H](Cc3ccccc3)NC(=O)[C@H](CCN)NC2=O)[C@@H](C)O)[C@H](C(=O)N[C@@H](CCCC)C(=O)N[C@@H](CCN)C(=O)N[C@H](C(=O)NNC(=O)N[C@H]2CCNC(=O)[C@H]([C@@H](C)O)NC(=O)[C@H](CCN)NC(=O)[C@H](CCN)NC(=O)[C@H](CC(C)C)NC(=O)[C@@H](Cc3ccccc3)NC(=O)[C@H](CCN)NC2=O)[C@@H](C)O)C1 [Int-120] (I: [Nle][Dab]T[azaGly][Dab][Dab][dF]L[Dab][Dab]T / II: [Nle][Dab]T[azaGly][Dab][Dab][dF]L[Dab][Dab]T; lactam I:5-I:C, II:5-II:C; linker I:N-II:N via X5)
% LPS neutralization (LPS from E. coli O111:B4): 68.0%
% survival [1]: 100%

C#CCOCCOCCOCCOCCC(=O)N[C@@H](CCCCCC)C(=O)N[C@@H](CCN)C(=O)N[C@H](C(=O)N[C@@H](CCN)C(=O)N[C@H]1CCNC(=O)[C@H]([C@@H](C)O)NC(=O)[C@H](CCN)NC(=O)[C@H](CCN)NC(=O)[C@H](CC(C)C)NC(=O)[C@@H](Cc2ccccc2)NC(=O)[C@H](CCN)NC1=O)[C@H](O)CCC(F)(F)F [Int-118] ({Propargyl(OCH2CH2)4CO}-[Aoc(2)][Dab][X2][Dab][Dab][Dab][dF]L[Dab][Dab]T; lactam 5-C)
% LPS neutralization (LPS from E. coli O111:B4): 59.0%
% survival (E. coli 25922): 66%

C#CCOCCOCCOCCOCCC(=O)N[C@@H](CCC(C)C)C(=O)N[C@@H](CCN)C(=O)N[C@H](C(=O)NNC(=O)N[C@H]1CCNC(=O)[C@H]([C@@H](C)O)NC(=O)[C@H](CCN)NC(=O)[C@H](CCN)NC(=O)[C@H](CC(C)C)NC(=O)[C@@H](Cc2ccccc2)NC(=O)[C@H](CCN)NC1=O)[C@H](O)CCCCC [Int-116] ({Propargyl(OCH2CH2)4CO}-[hLeu][Dab][X3][azaGly][Dab][Dab][dF]L[Dab][Dab]T; lactam 5-C)
% LPS neutralization (LPS from E. coli O111:B4): 33.2%

C#CCOCCOCCOCCOCCC(=O)N[C@@H](CCCCCC)C(=O)N[C@@H](CCN)C(=O)N[C@H](C(=O)NN(CCN)C(=O)N[C@H]1CCNC(=O)[C@H]([C@@H](C)O)NC(=O)[C@H](CCN)NC(=O)[C@H](CCN)NC(=O)[C@H](CC(C)C)NC(=O)[C@@H](Cc2ccccc2)NC(=O)[C@H](CCN)NC1=O)[C@@H](C)O [Int-129] ({Propargyl(OCH2CH2)4CO}-[Aoc(2)][Dab]T[azaDab][Dab][Dab][dF]L[Dab][Dab]T; lactam 5-C)
% LPS neutralization (LPS from E. coli O111:B4): 23.0%
% survival (Ec LPS: E. coli 0111:B4): 100%
